Measurements published in ChEMBL document CHEMBL1122633, “Interactions of antitumor drugs with natural DNA: 1H NMR study of binding mode and kinetics” (J Med Chem, 1984).

Test system: Nucleic Acid
Experiment: DNA binding dissociation constant as KD
Type: nucleic-acid assay

Row | SMILES | Log Kd
1 | C[n+]1c(-c2ccccc2)c2cc(N)ccc2c2ccc(N)cc21 | 5.7
2 | CS(=O)(=O)Nc1ccc(Nc2c3ccccc3nc3ccccc23)cc1 | 5.63
3 | CC[n+]1c(-c2ccccc2)c2cc(N)ccc2c2ccccc21 | 4.9
4 | c1ccc2c(c1)ccc1[n+]2Cc2ccc3ccccc3[n+]2-1 | 4.7
5 | COc1cc(NS(C)(=O)=O)ccc1Nc1c2ccccc2nc2ccccc12 | 5.14
6 | CN(C)CCN1C(=O)c2cccc3cc([N+](=O)[O-])cc(c23)C1=O | 5.16
7 | Cc1cc2nc3ccccc3n(-c3cccc(N(C)C)c3)c-2c(C)c1=N | 3.64
8 | CCN(CC)CCCC(C)Nc1c2ccc(Cl)cc2nc2ccc(OC)cc12 (stereo unspecified) | 4.25
9 | COc1cccc2c1C(=O)c1c(O)c3c(c(O)c1C2=O)C[C@@](O)(C(C)=O)C[C@@H]3O[C@H]1C[C@H](N)[C@H](O)[C@H](C)O1 | 6.49
10 | Cn1cc(NC(=O)c2cc(NC(=O)c3cc(NC=O)cn3C)cn2C)cc1C(=O)NCCC(=N)N | 6.06
11 | CS(=O)(=O)Nc1ccccc1Nc1c2ccccc2nc2ccccc12 | 5.72
12 | C[n+]1ccc(Nc2ccc(NC(=O)c3ccc(Nc4cc[n+](C)c5ccc(N)cc45)cc3)cc2)cc1 | 6.9
13 | Cc1c2ccncc2c(C)c2c1[nH]c1ccc(O)cc12 | 0.3
14 | CC[n+]1c(-c2ccccc2)c2cc(N)ccc2c2ccc(N)cc21 | 5.7
15 | Cc1c2ccncc2c(C)c2c1[nH]c1ccccc12 | 5.18
16 | c1ccc2c(c1)[nH]c1cnccc12 | 5.34
17 | Nc1c2ccccc2nc2ccccc12 | 5.7
18 | CCN(CC)CCOc1ccc2c(c1)C(=O)c1cc(OCCN(CC)CC)ccc1-2 | 5.64
19 | CCN(CC)CCCC(C)Nc1ccnc2cc(Cl)ccc12 (stereo unspecified) | 4.25
20 | CS(=O)(=O)Nc1cccc(Nc2c3ccccc3nc3ccccc23)c1 | 5.8
21 | Cc1c2cc[n+](C)cc2c(C)c2c1[nH]c1ccc(O)cc12 | 6.11
